Target: T1, catechol-O-methyltransferase (COMT) (Homo sapiens, UniProt P21964)
T1 construct: M51A variant) was expressed in HEK 293F cells
T1 sequence (P21964 52-271 limits assumed): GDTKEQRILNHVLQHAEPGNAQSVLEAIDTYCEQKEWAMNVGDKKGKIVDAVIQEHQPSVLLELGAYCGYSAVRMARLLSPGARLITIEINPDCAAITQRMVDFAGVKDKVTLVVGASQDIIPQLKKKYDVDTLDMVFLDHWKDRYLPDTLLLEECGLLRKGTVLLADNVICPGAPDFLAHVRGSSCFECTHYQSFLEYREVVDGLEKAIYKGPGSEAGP
Assay: COMT inhibition assay (HTRF, production of SAH from SAM)
Format: biochemical
Conditions: table does not say MB-COMT or S-COMT
Summary of the method: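 Membranes from HEK293F cells expressing MB-COMT (M51A variant) incubated with 20 μM SAM and 1.5 μM dopamine plus compound (10 concentrations) for 40 min at 37 °C; S-COMT (Val158) at 0.15 ng/well used 100 μM dopamine, 15 min. SAH measured by HTRF against a standard curve; pIC50 from 4-parameter logistic fit.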

Structure (SMILES)	Activity range (pIC50)
O=c1cc2n(cc1O)CCN(Cc1ccccc1)C2c1ccccc1 (stereo not shown) [Example 116, 2-benzyl-7-hydroxy-1-phenyl-1,2,3,4-tetrahydro-8H-pyrido[1,2-a]pyrazin-8-one]	+++ (three plus signs (+++) is associated with a pIC50 of above about 7)
O=c1cc2n(cc1O)CCN(Cc1c(Cl)cccc1Cl)C2c1ccccc1 (stereo not shown) [Example 117, 2-(2,6-dichlorobenzyl)-7-hydroxy-1-phenyl-1,2,3,4-tetrahydro-8H-pyrido[1,2-a]pyrazin-8-one]	+++ (three plus signs (+++) is associated with a pIC50 of above about 7)
CCc1ccc(CN2CCn3cc(O)c(=O)cc3C2C(C)C)cc1 (stereo not shown) [Example 120, 2-(4-ethylbenzyl)-7-hydroxy-1-(propan-2-yl)-1,2,3,4-tetrahydro-8H-pyrido[1,2-a]pyrazin-8-one]	+++ (three plus signs (+++) is associated with a pIC50 of above about 7)
Cc1cccc(C)c1CN1CCn2cc(O)c(=O)cc2C1C (stereo not shown) [Example 121, 2-(2,6-dimethylbenzyl)-7-hydroxy-1-methyl-1,2,3,4-tetrahydro-8H-pyrido[1,2-a]pyrazin-8-one]	+++ (three plus signs (+++) is associated with a pIC50 of above about 7)
CCc1ccc(CN2CCn3cc(O)c(=O)cc3C2C)cc1 (stereo not shown) [Example 122, 2-(4-ethylbenzyl)-7-hydroxy-1-methyl-1,2,3,4-tetrahydro-8H-pyrido[1,2-a]pyrazin-8-one]	+++ (three plus signs (+++) is associated with a pIC50 of above about 7)
O=c1cc2n(cc1O)CCN(Cc1cccc3cccnc13)C2c1ccc(F)cc1 (stereo not shown) [Example 123, 1-(4-fluorophenyl)-7-hydroxy-2-(quinolin-8-ylmethyl)-1,2,3,4-tetrahydro-8H-pyrido[1,2-a]pyrazin-8-one]	+++ (three plus signs (+++) is associated with a pIC50 of above about 7)
Cc1cccc(C)c1CN1CCn2cc(O)c(=O)cc2C1c1ccc(F)cc1 (stereo not shown) [Example 124, 2-(2,6-dimethylbenzyl)-1-(4-fluorophenyl)-7-hydroxy-1,2,3,4-tetrahydro-8H-pyrido[1,2-a]pyrazin-8-one]	+++ (three plus signs (+++) is associated with a pIC50 of above about 7)
CCc1ccc(CN2CCn3cc(O)c(=O)cc3C2C2CCOCC2)cc1 (stereo not shown) [Example 125, 2-(4-ethylbenzyl)-7-hydroxy-1-(tetrahydro-2H-pyran-4-yl)-1,2,3,4-tetrahydro-8H-pyrido[1,2-a]pyrazin-8-one]	+++ (three plus signs (+++) is associated with a pIC50 of above about 7)
CCc1ccc(CN2CCn3cc(O)c(=O)cc3C2c2cccc(-c3cccnc3)c2)cc1 (stereo not shown) [Example 126, 2-(4-ethylbenzyl)-7-hydroxy-1-[3-(pyridin-3-yl)phenyl]-1,2,3,4-tetrahydro-8H-pyrido[1,2-a]pyrazin-8-one]	+++ (three plus signs (+++) is associated with a pIC50 of above about 7)
O=c1cc2n(cc1O)CC(c1ccccc1)N(Cc1ccccc1)C2 (stereo not shown) [Example 127, 2-benzyl-7-hydroxy-3-phenyl-1,2,3,4-tetrahydro-8H-pyrido[1,2-a]pyrazin-8-one]	+++ (three plus signs (+++) is associated with a pIC50 of above about 7)
O=c1cc2n(cc1O)CC(Cc1ccccc1)N(Cc1ccccc1)C2 (stereo not shown) [Example 128, 2,3-dibenzyl-7-hydroxy-1,2,3,4-tetrahydro-8H-pyrido[1,2-a]pyrazin-8-one]	++ (two plus signs (++) is associated with a pIC50 of from about 6 to 7)
O=c1cc2n(cc1O)CC(Cc1ccccc1)N(Cc1c(Cl)cccc1Cl)C2 (stereo not shown) [Example 129, 3-benzyl-2-(2,6-dichlorobenzyl)-7-hydroxy-1,2,3,4-tetrahydro-8H-pyrido[1,2-a]pyrazin-8-one]	++ (two plus signs (++) is associated with a pIC50 of from about 6 to 7)
CC1Cn2cc(O)c(=O)cc2CN1Cc1ccc(OC(F)(F)F)cc1 (stereo not shown) [Example 130, 7-hydroxy-3-methyl-2-[4-(trifluoromethoxy)benzyl]-1,2,3,4-tetrahydro-8H-pyrido[1,2-a]pyrazin-8-one]	++ (two plus signs (++) is associated with a pIC50 of from about 6 to 7)
